Laboratory results published in patent US5576022A, “Controlled release tacrine drug delivery systems and methods for preparing same” (Warner Lambert Company, priority 1995, dated 1996).

Experiments:
[1] = Single-dose 40-mg pharmacokinetics of CR1, CR2, CR6 and CR7 capsules in healthy elderly volunteers (Example 12); assay type: in vivo, human; conditions: all of the formulations
Source text: The study objective was to determine the relative bioavailability and in vivo release characteristics of a 40-mg tacrine IR capsule (CR1) and three prototype 40-mg tacrine CR capsules (CR2, CR6 and CR7) to aid in the development of a tacrine controlled-release formulation. Sixteen healthy volunteers received a single 40-mg tacrine dose of CR1, CR2, CR6, or CR7 according to a randomized, 4-way crossover design (Table 6). Subjects ranged in age from 59 to 77 years (mean=67). […] Serial blood samples were drawn up to 24 hours following each dose and were subsequently analyzed for tacrine, 1-OH tacrine, 2-OH tacrine, and 4-OH tacrine.

[2] = Single-dose 40-mg pharmacokinetics of CR1, CR3, CR4 and CR5 capsules in healthy elderly volunteers (Example 11, Protocol 970-36); conditions: all of the formulations
Procedure: Subjects ranged in age form 50 to 74 years (mean=62). None of the subjects were smokers. Serial blood samples were drawn up to 24 hours following each dose and subsequently analyzed for tacrine.
Lag-time (tlag) between dose administration and apparent start of absorption was determined as the sampling time immediately preceding time of the first quantifiable plasma concentration.
Extent of absorption was assessed by evaluation of AUC(O-tldc) values. […] Relative extent of absorption values based on AUC(O-.infin.) values were similar to those based on AUC(O-tldc).

[3] = background; cited from earlier work

SMILES | Plasma 1-OH tacrine concentrations relative to tacrine [1] | Plasma 1-OH tacrine concentrations relative to tacrine [2] | absorption and elimination in words [3]
Nc1c2c(nc3ccccc13)CCCC2O (stereo not drawn) [1-OH tacrine] | approximately three times higher | approximately two times higher | 
Cl.Nc1c2c(nc3ccccc13)CCCC2 [tacrine, 1,2,3,4-tetrahydro-9-acridinamine hydrochloride] |  |  | rapidly absorbed and eliminated
